Data taken from US20240125768A1, “METHODS FOR MODULATING A SRC-1 CONDENSATE” (ETERN BIOPHARMA (SHANGHAI) CO., LTD., priority 2021, published 2024).

Tests used:
[1] = system: YAP target genes; test: RNA-seq global gene expression profiles in SF268 cells; type: cell-based, human; settings: 20 μM, 24 h
Method: FIG. 7E illustrates SF268 cells treated with EVG were subjected to RNA-seq analysis. GSEA enrichment plots of genes involved in Hippo/YAP signaling.
Total RNA of three biological replicates was extracted from SF268 cells 24 h after treated with 20 μM EVG/DMSO using TRIzol™ Reagent (15596018, Invitrogen). RNAseq libraries were prepared using the Illumina TruSeq RNA Sample Prep kit v2 and sequenced using the Illumina HiSeq Xten platform (150-bp paired-end reads). We mapped the RNA-seq sequencing reads to the human reference transcriptome (GRCh37.71) using HISAT259 version 2.0.1. Differentially expressed genes in elvitegravir-treatment group were identified with the R package DESeq.

[2] = system: YAP; test: ChIP-qPCR of YAP association on YAP target regions; type: cell-based, human; settings: DMSO or elvitegravir
Method: FIG. 7J illustrates the association of YAP on YAP targets regions (#1:ANKRD1enhancer, #2:PAWRpromoter, #3:NPPBpromoter, #4:CTGF promoter) were analyzed by ChIP-qPCR from cells treated with DMSO or elvitegravir. Data are representative of 3 independent experiments. Error bars indicate the s.e.m. of triplicate qPCR data.
FIG. 7K illustrates the association of YAP on YAP target regions were analyzed by ChIP-qPCR in SF268 cells treated with EVG or DMSO. Error bars show mean±s.e.m. (n=3).
Briefly, cells were crosslinked with 1% formaldehyde (Sigma) in culture medium for 10 min at room temperature, and chromatin from lysed nuclei was sheared to 200-1000 bp fragments using a Bioruptor® Pico (Diagenode SA). ˜50 μg of sheared chromatin and ˜2 μg of antibody were mixed. […] Quantitative real-time PCR was carried out with QuantStudio™ 6 Flex Real-Time PCR Systems (Thermofisher Scientific). The amount of immunoprecipitated DNA in each sample was determined as the fraction of the input, and normalized to the IgG control. […]
(§1) Chromatin immunoprecipitation antibodies are listed in Supplementary […] Supplementary Methods. […] Quantitative real-time PCR was carried out with QuantStudio™ 6 Flex Real-Time PCR Systems (Thermofisher Scientific). The amount of immunoprecipitated DNA in each sample was determined as the fraction of the input, and normalized to the IgG control.

[3] = system: H3K27ac; test: ChIP-qPCR of histone modifications at YAP target regions; type: cell-based, human; settings: SF268 cells
Method: FIG. 7L illustrates analysis of indicated histone modifications at YAP targets regions #1 from SF268 cells treated with DMSO or EVG by ChIP-qPCR. Error bars show mean±s.e.m. (n=3), *p<0.05, ***p<0.001
Briefly, cells were crosslinked with 1% formaldehyde (Sigma) in culture medium for 10 min at room temperature, and chromatin from lysed nuclei was sheared to 200-1000 bp fragments using a Bioruptor® Pico (Diagenode SA). ˜50 μg of sheared chromatin and ˜2 μg of antibody were mixed. Antibody/antigen complexes were recovered with ProteinG-Dynabeads (Invitrogen) for 1.5 h at 4° C. Quantitative real-time PCR was carried out with QuantStudio™ 6 Flex Real-Time PCR Systems (Thermofisher Scientific). The amount of immunoprecipitated DNA in each sample was determined as the fraction of the input, and normalized to the IgG control. PCR Primers are listed in Supplementary Table S2.
as §1

[4] = system: H3K27ac; test: Immunofluorescence of H3K27ac at TEAD puncta in H1299 cells; type: cell-based; settings: H1299 cells co-expressing YAP5SA, TEAD4-mTagBFP, mNeoGreen-SRC1; 20 μM
Method: FIG. 7 M illustrates immunofluorescence staining with anti-H3K27ac (red,top) and anti-RNA pol II-S5P (red, bottom) in H1299 cells co-expressing YAP5SA, TEAD4-mTagBFP(blue) and mNeoGreen-SRC1(green) treated with 20 μM EVG. EVG impaired the SRC-1 LLPS. Transcription active markerH3K27ac and active RNA polymerase II phosphorylated at Ser 5 of CTD were not enriched in SRC-1 condensates. Scale bar, 5 μm.
Cells were fixed with 4% PFA for 15 minutes at room temperature. Cells were subsequently washed with PBS (3×3 min) and blocked in PBS/BSA (3%)/Triton X-100 (0.3%) at room temperature for 60 minutes. Cells were rinsed in PBS and incubated with anti-H3K27ac (ab4729, Abcam, 1:100), anti-RNA Pol II-S5P antibody (#04-1572, Millipore, 1:200) in PBS/BSA (1%) overnight at 4° C. Cells were washed with PBST (1×PBS+Tween20 0.2%, 3×5 min) and incubated with the secondary antibody for 1 hours at room temperature. After washing with PBST(3×5 min), cells were stained with DAPI.

[5] = system: SRC-1; test: Biotin-EVG competition pulldown and thermal shift assays; type: binding; settings: Flag-SRC-1, biotin-EVG, increasing concentrations of EVG
Method: FIG. 7T illustrates the lysates from SF268 cells overexpressing Flag-SRC-1 were incubated with 20 μM biotin or biotin-EVG for streptavidin-beads pull-down assays.
FIG. 7U illustrates purified Flag-SRC1 protein was incubated with EVG-Biotin in the presence of increasing concentrations of EVG and further subjected to streptavidin-beads pull-down assays.
1 μg of purified recombinant protein Flag-SRC-1 was incubated with […] biotin-EVG/DMSO in the presence of increasing concentrations of Elvitegravir (20, 40, 100, 200 uM) for 30 min (RT) and was further incubated with streptavidin-agarose (20359, Thermo Fisher Scientific) for 20 min (RT). Washing beads with PBS (3×1.5 min). The precipitates were analyzed by western blot with anti-flag antibody.
Methods: Cells (SF268 cells and HEK293FT cells were transfected with expression vector of Flag-SRC-1) were harvested and lysed in lysis buffer (20 mM TrisHCl 7.5, 150 mM NaCl, 0.5% NP40, 5% glycerin, 1% proteinase Cocktail), and then incubated with 20 µM compound with biotin tag or DMSO for 40 min at room temperature. Then incubated with 100 μL streptavidin-agarose (20359, Thermo Fisher Scientific) for 30 min at RT. The beads were washed 4 times with lysis buffer ([…] 1.5 min). And the precipitates were analyzed by western blot with anti-flag antibody. […]

With `COc1cc2c(cc1Cc1cccc(Cl)c1F)c(=O)c(C(=O)O)cn2[C@H](CO)C(C)C` [EVG, 6-[(3-chloro-2-fluorophenyl)methyl]-1-[(2S)-1-hydroxy-3-methylbutan-2-yl]-7-methoxy-4-oxoquinoline-3-carboxylic acid] the “YAP target genes, global gene expression profiles” value [1] was “downregulates”, the “access of YAP to target genes (association of YAP on YAP target regions)” value [2] was “excluding the possibility that EVG may block the access of YAP to target genes” and the “H3K27ac mark levels at YAP target genes” value [3] was “reducing”. The “enrichment of H3K27ac at TEAD puncta” value [4] was “inhibited the enrichment” and the “binding to SRC-1, competition pulldown and thermal shift” value [5] was “both direct and specific”.
